Read-outs that look alike come from different tables or passages of the source.
What was measured:
native MDH = biological target: T1, native MDH (Sus scrofa, UniProt P00346); assay: Native MDH enzymatic activity counter-screen; format: biochemical, pig; details: compounds added after refolding and EDTA quench, read-out: Biochemical Assay IC50 Native MDH Activity
T1 construct: soluble pig heart MDH from Roche, product #10127248001; purchased Roche 10127248001; host or cells: pig heart
T1 sequence (P00346 25-338): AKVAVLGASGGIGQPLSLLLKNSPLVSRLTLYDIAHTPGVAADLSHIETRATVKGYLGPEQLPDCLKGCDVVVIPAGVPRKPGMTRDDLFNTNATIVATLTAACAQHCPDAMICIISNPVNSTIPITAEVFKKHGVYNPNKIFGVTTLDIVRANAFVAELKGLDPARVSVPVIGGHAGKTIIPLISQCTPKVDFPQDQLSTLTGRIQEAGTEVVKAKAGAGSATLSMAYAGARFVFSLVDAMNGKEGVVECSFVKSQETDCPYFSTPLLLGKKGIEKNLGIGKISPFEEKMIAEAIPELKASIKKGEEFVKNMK
Method: Counter-screening compounds for inhibition of native MDH enzymatic activity.
Reagent Preparations & Assay Protocol: This assay was performed as described above for the GroEL/ES-dMDH refolding assay; however, the assay protocol differed in the sequence of compound addition to the assay plates. The refolding reactions were allowed to proceed for 45 min at 37° C. in the absence of test compounds (complete refolding of MDH occurs), then quenched with the EDTA stock. Compounds were then pin-transferred into the plates after the EDTA quenching step; thus, compounds effects are only possible by inhibiting the fully-refolded MDH reporter substrate. Next enzymatic activity of the refolded MDH was initiated by addition of 20 μL MDH enzymatic assay stock (20 mM sodium mesoxalate and 2.4 mM NADH in reaction buffer, 50 mM Tris pH 7.4, 50 mM KCl, 1 mM DTT), and followed by measuring the NADH absorbance in each well at 340 nm using a Molecular Devices SpectraMax Plus384 microplate reader
A340 nm measurements were recorded at 0.5 minutes (start point) and at successive time points until the amount of NADH consumed reached ˜90% (end point, generally between 20-35 minutes). Compounds were tested in 8-point, 3-fold dilution series (62.5 μM to 29 nM during the reporter reaction) in clear, flat-bottom 384-well microtiter plates.
DMSO was used as a negative control, and previously discovered native MDH inhibitors were used as positive controls. IC50 values for the test compounds were obtained by plotting the % inhibition results in GraphPad Prism 6 and analyzing by non-linear regression using the log (inhibitor) vs. response (variable slope) equation. Results presented represent the averages of IC50 values obtained from at least quadriplicate (duplicate of duplicate) replicates.

[1] = HEK 293 kidney cell viability / cytotoxicity assay (Alamar Blue); format: cell-based; details: human
Method: Evaluating compound effects on kidney cell viability.
HEK 293 cells were maintained in MEM medium (Corning Cellgro, 10-009 CV) supplemented with 10% FBS (Sigma, F2242). […] Cells at 80% confluence were harvested and diluted in growth medium, then 45 μL of the HEK 293 cells (1,500 cells/well) were dispensed per well, and plates were sealed with “Breathe Easy” oxygen permeable membranes (Diversified Biotech) and incubated at 37° C., 5% CO2, for 24 h. […] Plates were sealed with “Breathe Easy” oxygen permeable membranes and incubated for an additional 48 h at 37° C. and 5% CO2. The Alamar Blue reporter reagents were then added to a final concentration of 10%, the plates incubated at 37° C. and 5% CO2, and sample fluorescence (535 nm excitation, 590 nm emission) was read using a Molecular Devices FlexStation II 384-well plate reader (readings taken between 4-24 h of incubation so as to achieve signals in the 30-60% range for conversion of resazurin to resorufin). Cell viability was calculated as per vendor instructions (Thermo Fisher—Alamar Blue cell viability assay manual).

[2] = Table 2, 48 h incubation, Alamar Blue, read-out: HEK 293 Kidney Cell Viability CC50
[3] = HEK 293 kidney cells, Table 3, 48 h incubation, Alamar Blue, read-out: HEK 293 Kidney Cell Viability CC50
[4] = HEK 293 kidney cells, Table 1, 48 h incubation, Alamar Blue, read-out: HEK 293 Kidney Cell Viability CC50
[5] = HEK 293 kidney cells, Table 2, 48 h incubation, Alamar Blue, read-out: HEK 293 Kidney Cell Viability CC50

Compound | IC50 (native MDH; Table 2) | CC50 at 48 h [1, 2] | IC50 (native MDH; Table 3) | CC50 at 48 h [1, 3] | other results
Cc1cc(C(C#N)c2ccc(Cl)cc2)c(Cl)cc1NC(=O)c1cc(Br)ccc1O (centres unmarked) [Compound 50, 5-bromo-N-(5-chloro-4-((4-chlorophenyl)(cyano)methyl)-2-methylphenyl)-2-hydroxybenzamide] | 55 µM | 3.4 µM | – | – | –
O=C(Nc1ccc(OCc2ccccc2)cc1)c1cc(Cl)ccc1O [Compound 103, N-(4-(benzyloxy)phenyl)-5-chloro-2-hydroxybenzamide] | – | – | > 63 µM | > 100 µM | –
COc1ccc(Cl)cc1C(=O)Nc1ccc(CCc2ccccc2)cc1 [Compound 100, 5-chloro-2-methoxy-N-(4-phenethylphenyl)benzamide] | – | – | > 63 µM | > 100 µM | –
O=C(Nc1ncc([N+](=O)[O-])s1)c1ccccc1O [Tizoxanide, reference compound] | – | – | – | – | IC50 (native MDH; Table 1): > 63 µM; CC50 at 48 h [1, 4]: 31 µM
COc1ccc(NC(=O)c2cc(Cl)ccc2O)cc1 [Compound 113, 5-chloro-2-hydroxy-N-(4-methoxyphenyl)benzamide] | – | – | > 63 µM | 19 µM | –
Cc1cc(C(C#N)c2ccc(Cl)cc2)c(Cl)cc1NC(=O)c1cc(Br)cc(Br)c1O (centres unmarked) [Compound 46, 3,5-dibromo-N-(5-chloro-4-((4-chlorophenyl)(cyano)methyl)-2-methylphenyl)-2-hydroxybenzamide] | 2.3 µM | 58 µM | – | – | –
Cc1cc(C(C#N)c2ccc(Cl)cc2)c(Cl)cc1NC(=O)c1cccc([N+](=O)[O-])c1 (centres unmarked) [Compound 68, N-(5-chloro-4-((4-chlorophenyl)(cyano)methyl)-2-methylphenyl)-3-nitrobenzamide] | > 63 µM | – | – | – | CC50 at 48 h [1, 5]: > 100 µM
Cc1cc(C(C#N)c2ccc(Cl)cc2)c(Cl)cc1NC(=O)c1cccc(Br)c1O (centres unmarked) [Compound 48, 3-bromo-N-(5-chloro-4-((4-chlorophenyl)(cyano)methyl)-2-methylphenyl)-2-hydroxybenzamide] | 48 µM | 43 µM | – | – | –
Cc1cc(C(C#N)c2ccc(Cl)cc2)c(Cl)cc1NC(=O)c1ccccc1F (centres unmarked) [Compound 79, N-(5-chloro-4-((4-chlorophenyl)(cyano)methyl)-2-methylphenyl)-2-fluorobenzamide] | > 63 µM | – | – | – | CC50 at 48 h [1, 5]: 85 µM
Cc1ccc(O)c(C(=O)Nc2cc(Cl)c(C(C#N)c3ccc(Cl)cc3)cc2C)c1 (centres unmarked) [Compound 60, N-(5-chloro-4-((4-chlorophenyl)(cyano)methyl)-2-methylphenyl)-2-hydroxy-5-methylbenzamide] | > 63 µM | 40 µM | – | – | –
Cc1cc(C(C#N)c2ccc(Cl)cc2)c(Cl)cc1NC(=O)c1cc(Cl)cc(Cl)c1O (centres unmarked) [Compound 52, 3,5-dichloro-N-(5-chloro-4-((4-chlorophenyl)(cyano)methyl)-2-methylphenyl)-2-hydroxybenzamide] | 5.5 µM | – | – | – | CC50 at 48 h [1, 5]: 44 µM
COc1ccc(Cl)cc1C(=O)Nc1ccc(Oc2ccccc2)cc1 [Compound 92, 5-chloro-2-methoxy-N-(4-phenoxyphenyl)benzamide] | – | – | > 63 µM | > 100 µM | –
COc1ccc(Br)cc1C(=O)Nc1cc(Cl)c(C(C#N)c2ccc(Cl)cc2)cc1C (centres unmarked) [Compound 49, 5-bromo-N-(5-chloro-4-((4-chlorophenyl)(cyano)methyl)-2-methylphenyl)-2-methoxybenzamide] | > 63 µM | > 100 µM | – | – | –
O=C(Nc1ccc(Sc2nc3ccccc3s2)c(Cl)c1)c1cc(Br)cc(Br)c1O [Compound 1, reference compound] | – | – | – | – | IC50 (native MDH; Table 1): 6.3 µM; CC50 at 48 h [1, 4]: 73 µM
COc1ccc(C)cc1C(=O)Nc1cc(Cl)c(C(C#N)c2ccc(Cl)cc2)cc1C (centres unmarked) [Compound 59, N-(5-chloro-4-((4-chlorophenyl)(cyano)methyl)-2-methylphenyl)-2-methoxy-5-methylbenzamide] | > 63 µM | 32 µM | – | – | –
Cc1cc(C(C#N)c2ccc(Cl)cc2)c(Cl)cc1NC(=O)c1ccccc1O (centres unmarked) [Compound 64, N-(5-chloro-4-((4-chlorophenyl)(cyano)methyl)-2-methylphenyl)-2-hydroxybenzamide] | > 63 µM | 26 µM | – | – | –
COc1ccc(Cl)cc1C(=O)Nc1ccc(Cc2ccccc2)cc1 [Compound 98, N-(4-benzylphenyl)-5-chloro-2-methoxybenzamide] | – | – | > 63 µM | > 100 µM | –
O=C(Nc1ccc(Oc2ccccc2)cc1)c1cc(Cl)ccc1O [Compound 93, 5-chloro-2-hydroxy-N-(4-phenoxyphenyl)benzamide] | – | – | > 63 µM | 20 µM | –
CC(=O)Nc1cc(Cl)c(C(C#N)c2ccc(Cl)cc2)cc1C (centres unmarked) [Compound 83, N-(5-chloro-4-((4-chlorophenyl)(cyano)methyl)-2-methylphenyl)acetamide] | > 63 µM | – | – | – | CC50 at 48 h [1, 5]: 83 µM
COc1ccc(Cl)cc1C(=O)Nc1ccc(Sc2nc3ccccc3s2)cc1 [Compound 96, N-(4-(benzo[d]thiazol-2-ylthio)phenyl)-5-chloro-2-methoxybenzamide] | – | – | > 63 µM | 56 µM | –
Cc1cc(C(C#N)c2ccc(Cl)cc2)c(Cl)cc1NC(=O)c1cc(I)cc(I)c1O (centres unmarked) [Closantel, reference compound] | – | – | – | – | IC50 (native MDH; Table 1): 6 µM; CC50 at 48 h [1]: 79 µM
Cc1cc(C(C#N)c2ccc(Cl)cc2)c(Cl)cc1NC(=O)c1cc(Cl)ccc1O (centres unmarked) [Compound 58, 5-chloro-N-(5-chloro-4-((4-chlorophenyl)(cyano)methyl)-2-methylphenyl)-2-hydroxybenzamide] | > 63 µM | 11 µM | > 63 µM | – | –
COc1ccc(Cl)cc1C(=O)Nc1ccc(Oc2ccc(Cl)cc2)cc1 [Compound 88, 5-chloro-N-(4-(4-chlorophenoxy)phenyl)-2-methoxybenzamide] | – | – | > 63 µM | > 100 µM | –
Cc1cc(C(C#N)c2ccc(Cl)cc2)c(Cl)cc1NC(=O)c1cccc(O)c1 (centres unmarked) [Compound 65, N-(5-chloro-4-((4-chlorophenyl)(cyano)methyl)-2-methylphenyl)-3-hydroxybenzamide] | > 63 µM | – | – | – | CC50 at 48 h [1, 5]: 44 µM
Cc1cc(C(C#N)c2ccc(Cl)cc2)c(Cl)cc1NC(=O)c1ccccc1Cl (centres unmarked) [Compound 76, 2-chloro-N-(5-chloro-4-((4-chlorophenyl)(cyano)methyl)-2-methylphenyl)benzamide] | > 63 µM | > 100 µM | – | – | –
COc1ccc(Cl)cc1C(=O)Nc1ccc(Oc2ccccc2)c(Cl)c1 [Compound 90, 5-chloro-N-(3-chloro-4-phenoxyphenyl)-2-methoxybenzamide] | – | – | > 63 µM | > 100 µM | –
COc1c(Cl)cccc1C(=O)Nc1cc(Cl)c(C(C#N)c2ccc(Cl)cc2)cc1C (centres unmarked) [Compound 53, 3-chloro-N-(5-chloro-4-((4-chlorophenyl)(cyano)methyl)-2-methylphenyl)-2-methoxybenzamide] | > 63 µM | – | – | – | CC50 at 48 h [1, 5]: > 100 µM
COc1cc(Cl)ccc1C(=O)Nc1cc(Cl)c(C(C#N)c2ccc(Cl)cc2)cc1C (centres unmarked) [Compound 55, 4-chloro-N-(5-chloro-4-((4-chlorophenyl)(cyano)methyl)-2-methylphenyl)-2-methoxybenzamide] | > 63 µM | > 100 µM | – | – | –
Cc1cc(C(C#N)c2ccc(Cl)cc2)c(Cl)cc1NC(=O)c1ccc(F)cc1 (centres unmarked) [Compound 81, N-(5-chloro-4-((4-chlorophenyl)(cyano)methyl)-2-methylphenyl)-4-fluorobenzamide] | > 63 µM | 78 µM | – | – | –

From patent US20230406831A1, “COMPOUNDS AND METHODS OF INHIBITING BACTERIAL CHAPERONIN SYSTEMS” (THE TRUSTEES OF INDIANA UNIVERSITY, priority 2020, published 2023)
